Measured values reported in article PMC12449377, “Psychedelic-like effects induced by 2,5-dimethoxy-4-iodoamphetamine, lysergic acid diethylamide, and psilocybin in male and female C57BL/6J mice” (Psychopharmacology, 2025).

Assays:
[1] = biological target: T1, 5-HT1A (Mus musculus, UniProt Q64264); assay: Competition binding vs [3H]8-OH-DPAT in mouse brain membranes
T1 construct: tissue BioIVT; host or cells: whole C57BL/6 mouse brain minus cerebellum, male and female
T1 sequence (Q64264 1-421): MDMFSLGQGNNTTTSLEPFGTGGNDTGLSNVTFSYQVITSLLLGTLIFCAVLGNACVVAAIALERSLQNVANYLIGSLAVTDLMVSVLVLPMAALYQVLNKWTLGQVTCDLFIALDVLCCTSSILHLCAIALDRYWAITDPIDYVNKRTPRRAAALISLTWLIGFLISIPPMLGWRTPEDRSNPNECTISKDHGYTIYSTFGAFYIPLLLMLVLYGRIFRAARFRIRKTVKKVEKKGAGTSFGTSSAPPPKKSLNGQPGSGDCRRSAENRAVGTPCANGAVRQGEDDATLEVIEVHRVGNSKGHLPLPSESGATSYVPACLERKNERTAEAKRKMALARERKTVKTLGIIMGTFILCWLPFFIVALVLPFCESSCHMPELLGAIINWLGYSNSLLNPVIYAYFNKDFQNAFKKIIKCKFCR
Protocol: (§1) Competition binding studies were conducted in mouse brain tissue as previously described (Glatfelter et al. [2022b]). Briefly, the experiments utilized membranes prepared from whole C57BL/6 mouse brain minus cerebellum (BioIVT, Westbury, NY, USA). […] We assessed the ability of test drugs to compete for [^3H]M100907 binding at 5-HT2A (1 nM) or [^3H]8-OH-DPAT binding at 5-HT1A (0.5 nM). Radioligands were purchased commercially (PerkinElmer, Boston, MA, USA). Nonspecific binding was determined using 10 µM ketanserin for 5-HT2A and serotonin for 5-HT1A. All data represent 3 experiments performed in triplicate.
(§2) Concentration-response data were fit to a single site non-linear regression model. For the HTR studies, potencies were determined from the ascending limb of the dose-response curves using ED50 potency values from [agonist] vs. response (variable slope, four parameter) least squares fit non-linear regression analyses, whereas efficacy was defined by the top output parameter or Emax from the aforementioned analyses. […] Best-fit values for ED50 and Emax from non-linear regression analyses were compared by extra sum-of-squares F tests. Mean effects for each behavioral endpoint were compared using two-way ANOVA (dose x sex), followed by Sidak’s multiple comparisons post-hoc test. Mean effects for pooled mouse behavioral data were compared via Welch’s ANOVA with Dunnett’s T3 post-hoc test, comparing all doses to saline vehicle controls (0 mg/kg). Alpha was set to 0.05 for all analyses.

[2] = biological target: T2, 5-HT2A (Mus musculus, UniProt P35363); assay: Competition binding vs [3H]M100907 in mouse brain membranes
T2 construct: tissue BioIVT; host or cells: whole C57BL/6 mouse brain minus cerebellum, male and female
Protocol: as §1, §2

T2 sequence (P35363 whole entry): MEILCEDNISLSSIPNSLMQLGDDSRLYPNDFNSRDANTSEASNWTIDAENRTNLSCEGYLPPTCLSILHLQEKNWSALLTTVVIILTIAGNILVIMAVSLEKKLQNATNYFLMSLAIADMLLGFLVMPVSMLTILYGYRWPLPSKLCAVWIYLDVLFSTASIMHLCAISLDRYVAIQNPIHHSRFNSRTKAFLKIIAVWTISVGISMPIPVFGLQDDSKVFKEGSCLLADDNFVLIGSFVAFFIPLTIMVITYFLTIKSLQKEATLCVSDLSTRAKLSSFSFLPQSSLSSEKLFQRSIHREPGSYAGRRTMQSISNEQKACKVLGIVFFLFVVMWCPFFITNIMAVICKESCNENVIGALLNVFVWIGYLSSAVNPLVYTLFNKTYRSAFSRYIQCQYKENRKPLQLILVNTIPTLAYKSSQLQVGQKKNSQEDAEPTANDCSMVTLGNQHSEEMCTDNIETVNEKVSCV

SMILES: CN(C)CCc1c[nH]c2cccc(O)c12 [Psilocin]
- Ki ([1]; 5-HT1A binding affinity (Ki), males and females, male and female mouse brain membranes, summary statement): 0.001 to 0.1 µM
- Ki ([1]; [3H]8-OH-DPAT Binding ♀ m5-HT1A Ki, female mouse brain membranes): 0.1 µM
- Ki ([1]; [3H]8-OH-DPAT Binding ♂ m5-HT1A Ki, male mouse brain membranes): 0.113 µM
- Ki ([2]; 5-HT2A binding affinity (Ki), males and females, male and female mouse brain membranes, summary statement): 0.001 to 0.1 µM
- Ki ([2]; [3H]M100907 Binding ♀ m5-HT2A Ki, female mouse brain membranes): 0.113 µM
- Ki ([2]; [3H]M100907 Binding ♂ m5-HT2A Ki, male mouse brain membranes): 0.11 µM
